Reference: EP0993306B1, “PERFLUOROALKYLATED OLIGOMER COMPOUNDS, PROCESS FOR PREPARING THE SAME AND THEIR USE IN NMR DIAGNOSIS” (SCHERING AKTIENGESELLSCHAFT, priority 1997, dated 1999)

Columns and labels:
[1] = Contrast-enhanced MR angiography (3D FLASH, 2.0 Tesla); type: in vivo, Ratten (Han. Wistar); conditions: directly after single i.v. 50 µmol/kg or 100 µmol/kg; 3 D FLASH 10/2.6/40°
Protocol: Die Untersuchungen zur kontrastmittelgetützten MR Angiographie wurden an einem experimentellen MRT System (SISCO SIS 85, 2.0 Tesla) mit einer 3 D FLASH Technik (10/2.6/40°) durchgeführt. Um die Wirksamkeit von Kontrastmitteln zur Darstellung von Blutgefäßen zu bestimmen, wurden narkotisierte (Rompun® + Ketavet®,1 + 1, v/v; ≈ 1 ml pro kg Körpergewicht, i. m.) Ratten (Han. Wistar; ≈ 200 g Körpergewicht) MR-tomographisch untersucht.
Figur 4 zeigt Abbildungen dieses Experiments. Die MIP (maximal intensity projection)-Bilder wurden berechnet aus den 3 D FLASH Experimenten vor (links) und direkt nach einmaliger i. v. Applikation von 50 µmol / kg (mitte) bzw. 100 µmol /kg (rechts) der Substanz aus Beispiel 1 g.

[2] = rat, in vivo, iv, 100 umol/kg
Description: Hierfür wurde nach einmaliger intravenöser Applikation (via einer Caudalvene) der Substanzen (Dosis: ≈ 100 µmol Metall pro kg Körpergewicht) die Substanzkonzentration im Blut (basierend auf dem Gd- bzw. Dy-Gehalt) über einen Zeitraum bis zu 120 Minuten p. i. mittels ICP-AES bestimmt. Die pharmakokinetischen Parameter: Verteilungsvolumen (Vss), Gesamtclearance (CLtot) und Eliminationshalbwertszeit (tb) wurden mit einem speziellen Computerprogramm (TOPFIT 2.0; Thomae, Schering, Gödecke) berechnet, wobei ein Zwei-Kompartment-Distributionsmodell zu Grunde gelegt wurde.
Die Gd- und Dy-Gehalte im Blut wurden mittels ICP-AES bestimmt.
Hierfür wurde nach einmaliger intravenöser Applikation (via einer Caudalvene) der Substanzen (Dosis: ≈ 100 µmol Metall pro kg Körpergewicht) die Substanzkonzentration im Blut (basierend auf dem Metallgehalt) über einen Zeitraum bis zu 120 Minuten p. i. mittels ICP-AES bestimmt. Die pharmakokinetischen Parameter: Verteilungsvolumen (Vss), Gesamtclearance (CLtot) und Eliminationshalbwertszeit (tb) wurden mit einem speziellen Computerprogramm (TOPFIT 2.0; Thomae, Schering, Gödecke) berechnet, wobei ein Zwei-Kompartment-Distributionsmodell zu Grunde gelegt wurde.

[3] = Diffusibility: in vivo comparison with an intravasal and an extracellular contrast agent, ligated renal vessels; conditions: for Prozentsatz der im Blutraum verbliebenen Dosis: i.v. 20 µmol/kg each, ligated renal vessels, relative to Verbindung 2 set as 100 %
Protocol: Als Versuchstiere dienten drei 250 g schwere, männliche (Schering-SPF-) Ratten. Den Tieren wurden die Nierengefäße abgebunden, um eine renale Eliminierung zu verhindern und bei angenommener vernachlässigbarer faekaler Eliminierung ein Maß für Diffusibilität der erfindungsgemäßen Formulierung aus dem Blut in das umgebende Gewebe zu erhalten. Je Tier wurden 0.5 ml (jeweils 10 mmol/L) der folgenden Kontrastmittel-Lösung intravenös appliziert: Gemisch aus je 1 Teil der Verbindung des Beispiels 1g, im folgenden Verbindung 1 genannt, des intravasalen Kontrastmittels Eu-DTPA-Albumin, im folgenden Verbindung 2 genannt, und des extrazellulären Kontrastmittels Dy-DTPA, im folgenden Verbindung 3 genannt. Über einen Katheter in der Arteria carotis communis wurden Blutproben zu folgenden Zeitpunkten entnommen: 15, 30, 45, 60, 90 sec, 3, 5, 10, 15 min p.i. In den gewonnenen Blutproben wurden jeweils parallel die Konzentrationen an Gadolinium (Gd), Europium (Eu) und Dysprosium (Dy) mittels Atomemissionsspektrometrie (ICP-AES) gemessen. Der im Blutraum verbliebene Anteil des intravasalen Kontrastmittels Verbindung 2 (Eu) wurde als 100 % gesetzt. Der im Blutraum verbliebene Anteil der erfindungsgemäßen Formulierung Verbindung 1 (Gd) und der Verbindung 3 (Dy, extrazelluläre Vergleichssubstanz) konnte durch die unterschiedliche Markierung im gleichen Tier verglichen werden und wurde prozentual ins Verhältnis zur Konzentration der Verbindung 2 gesetzt. Damit liefern diese Daten Angaben über den Verbleib der Verbindungen im Intravasalraum.

[4] = T1 relaxivity in human plasma (Minispec pc 20); type: physicochemical

1,4,7-Tris {1,4,7-tris(N-carboxylatomethyl)-10-(N-1-methyl-3,6-diaza-2,5,8-trioxooctan-1,8-diyl)-1,4,7,10-tetraazacyclododecan, Gd-Komplex}-10-(N-2H,2H,4H,4H,5H,5H-3-oxa-perfluor-tridecanoyl)-1,4,7,10-tetraazacyclododecan [Beispiel 1g]
Signalanstieg in den Blutgefäßen (MIP-Bilder) [1]: ausgeprägter Signalanstieg in den Blutgefäßen und eine deutliche Kontrastierung zum Normalgewebe | CL tot [2]: 0.41 mL/min/kg | Vss [2]: 0.09 L/kg | Prozentsatz der im Blutraum verbliebenen Dosis ([3]; 30 sec p.i.): 84% | Prozentsatz der im Blutraum verbliebenen Dosis ([3]; 3 min p.i.): 62% | Prozentsatz der im Blutraum verbliebenen Dosis ([3]; 10 min p.i.): 44% | Blutkonzentrationen verglichen mit dem extrazellulären Kontrastmittel ([3]; early time points): deutlich höhere Blutkonzentrationen | Diffusion in das Interstitium im Vergleich zu Eu-DTPA-BSA (Verbindung 2) ([3]; first minute p.i.): nur geringfügig schneller | Diffusion in das Interstitium im Vergleich zu Dy-DTPA (Verbindung 3) ([3]; whole duration of the experiment): langsamer | R^1 (T^1-Relaxivity) ([4]; 0.47 T, 20 MHz, 37 °C, Humanplasma, normalised to one metal atom): 19,5 L/mmol * sec | Relaxivity (r1, Plasma) ([4]; plasma): ≈ 19.5 1*mmol^- ^1*s^-1
